“And” between values parts separate entries of the source, which are not always exact repeats. Equal entries are not always repeated. Inconclusive results and toxic doses are left out.
Test system: L1210 leukemia ip in BDF1 mice, survival T/C
Experiment: NCI In Vivo Anticancer Drug Screen. Data for tumor model L1210 Leukemia (intraperitoneal) in B6D2F1 (BDF1) mice
Settings: endpoint: mean survival time, higher = longer survival
Outline: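 In this screen, tumor-bearing mice given compound are compared to those given vehicle, and their survival values are reported as a treated-to-control quotient.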

[1] = dose: 50.0 mg/kg/injection, schedule: Q01DX001 (ip), vehicle: saline
[2] = dose: 100.0 mg/kg/injection, schedule: Q01DX001 (ip), vehicle: saline
[3] = dose: 200.0 mg/kg/injection, schedule: Q01DX001 (ip), vehicle: saline
[4] = dose: 400.0 mg/kg/injection, schedule: Q01DX001 (ip), vehicle: saline
[5] = dose: 100.0 mg/kg/injection, schedule: Q01DX001 (ip), vehicle: other
[6] = dose: 200.0 mg/kg/injection, schedule: Q01DX001 (ip), vehicle: other
[7] = dose: 400.0 mg/kg/injection, schedule: Q01DX001 (ip), vehicle: other
[8] = dose: 100.0 mg/kg/injection, schedule: Q01DX009 (ip), vehicle: Klucel (hydroxypropylcellulose) (HPC)
[9] = dose: 200.0 mg/kg/injection, schedule: Q01DX009 (ip), vehicle: Klucel (hydroxypropylcellulose) (HPC)
[10] = dose: 400.0 mg/kg/injection, schedule: Q01DX009 (ip), vehicle: Klucel (hydroxypropylcellulose) (HPC)
[11] = dose: 100.0 mg/kg/injection, schedule: Q04DX003 (ip), vehicle: Klucel (hydroxypropylcellulose) (HPC)
[12] = dose: 200.0 mg/kg/injection, schedule: Q04DX003 (ip), vehicle: Klucel (hydroxypropylcellulose) (HPC)
[13] = dose: 400.0 mg/kg/injection, schedule: Q04DX003 (ip), vehicle: Klucel (hydroxypropylcellulose) (HPC)
[14] = dose: 100.0 mg/kg/injection, schedule: Q04DX002 (ip), vehicle: Klucel (hydroxypropylcellulose) (HPC)
[15] = dose: 200.0 mg/kg/injection, schedule: Q04DX002 (ip), vehicle: Klucel (hydroxypropylcellulose) (HPC)
[16] = dose: 400.0 mg/kg/injection, schedule: Q04DX002 (ip), vehicle: Klucel (hydroxypropylcellulose) (HPC)
[17] = dose: 50.0 mg/kg/injection, schedule: Q01DX009 (ip), vehicle: saline
[18] = dose: 100.0 mg/kg/injection, schedule: Q01DX009 (ip), vehicle: saline
[19] = dose: 100.0 mg/kg/injection, schedule: Q04DX003 (ip), vehicle: saline
[20] = dose: 200.0 mg/kg/injection, schedule: Q01DX009 (ip), vehicle: saline
[21] = dose: 200.0 mg/kg/injection, schedule: Q04DX003 (ip), vehicle: saline
[22] = dose: 400.0 mg/kg/injection, schedule: Q04DX003 (ip), vehicle: saline

Nc1c(Cl)ncnc1Nc1ccc(C(=O)O)cc1
T/C [1]: 96 % of control
T/C [2]: 98 % of control
T/C [3]: 96 % of control
T/C [4]: 96 % of control

O=C1NC(=S)S/C1=C/c1ccc(/C=C2/SC(=S)NC2=O)cc1
T/C (dose: 50.0 mg/kg/injection, schedule: Q01DX001 (ip), vehicle: carboxymethylcellulose (CMC)): 92 % of control
T/C (dose: 100.0 mg/kg/injection, schedule: Q01DX001 (ip), vehicle: carboxymethylcellulose (CMC)): 94 % of control

c1ccc2c(c1)-c1cccc3c1c-2cc1ccccc13
T/C [5]: 104 % of control
T/C [6]: 101 % of control
T/C [7]: 95 % of control

CC(=O)Nc1ccccc1Cl
T/C [8]: 100 % of control
T/C [9]: 105 % of control
T/C [10]: 108 % of control

CCNC(=NC)c1ccc(NC(=O)c2ccc(C(=O)Nc3ccc(C(=NC)NCC)cc3)cc2)cc1
T/C (dose: 1.3 mg/kg/injection, schedule: Q01DX Z (ip), vehicle: carboxymethylcellulose (CMC)): 98 % of control
T/C (dose: 1.9 mg/kg/injection, schedule: Q01DX Z (ip), vehicle: carboxymethylcellulose (CMC)): 96 % of control
T/C (dose: 2.9 mg/kg/injection, schedule: Q01DX Z (ip), vehicle: carboxymethylcellulose (CMC)): 153 % of control
T/C (dose: 4.4 mg/kg/injection, schedule: Q01DX Z (ip), vehicle: carboxymethylcellulose (CMC)): 119 % of control
T/C (dose: 6.6 mg/kg/injection, schedule: Q01DX Z (ip), vehicle: carboxymethylcellulose (CMC)): 116 % of control
T/C (dose: 10.0 mg/kg/injection, schedule: Q01DX Z (ip), vehicle: carboxymethylcellulose (CMC)): 110 % of control
T/C (dose: 15.0 mg/kg/injection, schedule: Q01DX Z (ip), vehicle: carboxymethylcellulose (CMC)): 98 % of control

O=C1C(Cl)=C(N2CC2)C(=O)c2ccccc21
T/C (dose: 2.5 mg/kg/injection, schedule: Q01DX009 (ip), vehicle: Klucel (hydroxypropylcellulose) (HPC)): 107 % of control
T/C (dose: 5.0 mg/kg/injection, schedule: Q01DX009 (ip), vehicle: Klucel (hydroxypropylcellulose) (HPC)): 93 % of control

O=C(Nc1ccccc1)c1ccccc1
T/C [11]: 97 % of control
T/C [12]: 94 % of control
T/C [13]: 103 % of control

O=C(Nc1ccc(Cl)cc1)O/C(=C(/OC(=O)Nc1ccc(Cl)cc1)c1ccc(Cl)cc1)c1ccc(Cl)cc1
T/C [14]: 96 % of control
T/C [15]: 92 % of control
T/C [16]: 89 % of control

Cc1nc2nc[nH]c(=O)c2nc1C
T/C (dose: 16.0 mg/kg/injection, schedule: Q01DX Z (ip), vehicle: methylcellulose (MC)): 92 % of control
T/C (dose: 31.0 mg/kg/injection, schedule: Q01DX Z (ip), vehicle: methylcellulose (MC)): 89 % of control
T/C (dose: 62.0 mg/kg/injection, schedule: Q01DX Z (ip), vehicle: methylcellulose (MC)): 103 % of control
T/C (dose: 125.0 mg/kg/injection, schedule: Q01DX Z (ip), vehicle: methylcellulose (MC)): 93 % of control and 97 % of control
T/C (dose: 250.0 mg/kg/injection, schedule: Q01DX Z (ip), vehicle: methylcellulose (MC)): 107 % of control

Cc1ccc(C)c(NC(=O)Nc2cccc(Cl)c2)c1
T/C [8]: 93 % of control
T/C [11]: 92 % of control
T/C [9]: 96 % of control
T/C [12]: 89 % of control
T/C [10]: 91 % of control
T/C [13]: 87 % of control

O=C(C[N+]12CC=C(CO)C1C(O)CC2)c1ccc(Br)cc1 (centres undefined)
T/C [2]: 104 % of control
T/C [3]: 101 % of control

Nc1nc2c(c(-c3ccc(Cl)cc3)n1)CN(c1ccc(Br)cc1)C2=O
T/C [17]: 95 % of control
T/C [18]: 108 % of control
T/C [19]: 97 % of control
T/C [20]: 92 % of control
T/C [21]: 100 % of control
T/C [22]: 92 % of control

Nc1nc(N)c(-c2ccc(Cl)cc2)c(/C=C/c2ccc([N+](=O)[O-])cc2)n1
T/C [1]: 104 % of control
T/C [2]: 93 % of control
T/C [3]: 93 % of control
T/C [4]: 96 % of control

Cc1ccc(CNC(=O)NC(C)(C)C)c(C)c1
T/C [8]: 97 % of control
T/C [9]: 104 % of control
T/C [10]: 92 % of control

O=C1OC(=O)C2C3C=CC(C4C=CC43)C12 (centres undefined)
T/C [18]: 93 % of control
T/C (dose: 100.0 mg/kg/injection, schedule: Q04DX002 (ip), vehicle: saline with Tween-80): 103 % of control
T/C [19]: 86 % of control
T/C [20]: 102 % of control
T/C (dose: 200.0 mg/kg/injection, schedule: Q04DX002 (ip), vehicle: saline with Tween-80): 100 % of control
T/C [21]: 93 % of control
T/C [22]: 100 % of control

OC1CSCCc2ccccc21 (centres undefined)
T/C [5]: 100 % of control
T/C [6]: 98 % of control
T/C [7]: 114 % of control

Cc1c[n+](=O)c(C)cn1[O-]
T/C [2]: 97 % of control
T/C [3]: 100 % of control
T/C [4]: 103 % of control

Nc1cnnc(N)c1Cl
T/C (dose: 5.0 mg/kg/injection, schedule: Q01DX001 (ip), vehicle: saline): 102 % of control
T/C (dose: 10.0 mg/kg/injection, schedule: Q01DX001 (ip), vehicle: saline): 113 % of control
T/C (dose: 20.0 mg/kg/injection, schedule: Q01DX001 (ip), vehicle: saline): 104 % of control
T/C (dose: 40.0 mg/kg/injection, schedule: Q01DX001 (ip), vehicle: saline): 95 % of control

C1CN(CSCN2CCOCC2)CCO1
T/C [19]: 106 % of control
T/C [21]: 97 % of control
T/C [22]: 97 % of control

O=C1CC(=O)NC(=S)N1
T/C (dose: 100.0 mg/kg/injection, schedule: Q04DX003 (ip), vehicle: saline with Tween-80): 101 % of control
T/C (dose: 200.0 mg/kg/injection, schedule: Q04DX003 (ip), vehicle: saline with Tween-80): 93 % of control
T/C (dose: 400.0 mg/kg/injection, schedule: Q04DX003 (ip), vehicle: saline with Tween-80): 93 % of control

Cc1ccc(S(=O)(=O)NC(=S)Nc2ccccc2)cc1
T/C [1]: 98 % of control
T/C [17]: 102 % of control
T/C [2]: 101 % of control
T/C [18]: 95 % of control
T/C [3]: 101 % of control
T/C [20]: 109 % of control

O=C1c2ccccc2-c2cccc3ccc(C4CCCCC4)c1c23
T/C (dose: 100.0 mg/kg/injection, schedule: Q01DX001 (ip), vehicle: saline with Tween-80): 88 % of control
T/C (dose: 200.0 mg/kg/injection, schedule: Q01DX001 (ip), vehicle: saline with Tween-80): 88 % of control
T/C (dose: 400.0 mg/kg/injection, schedule: Q01DX001 (ip), vehicle: saline with Tween-80): 92 % of control

O=C(NCCCCCSC(=O)c1ccccc1)c1ccccc1
T/C [14]: 90 % of control
T/C [15]: 94 % of control
T/C [16]: 90 % of control

O=P(NCCO)(OCC(Br)CBr)OCC(Br)CBr (centres undefined)
T/C (dose: 50.0 mg/kg/injection, schedule: Q01DX009 (ip), vehicle: saline with Tween-80): 94 % of control
T/C (dose: 100.0 mg/kg/injection, schedule: Q01DX009 (ip), vehicle: saline with Tween-80): 102 % of control
T/C (dose: 200.0 mg/kg/injection, schedule: Q01DX009 (ip), vehicle: saline with Tween-80): 98 % of control

O=C(NCCCNC(=O)Nc1ccc(C2=NCCN2)cc1)Nc1ccc(C2=NCCN2)cc1
T/C (dose: 0.5 mg/kg/injection, schedule: Q01DX Z (ip), vehicle: carboxymethylcellulose (CMC)): 105 % of control
T/C (dose: 1.0 mg/kg/injection, schedule: Q01DX Z (ip), vehicle: carboxymethylcellulose (CMC)): 105 % of control
T/C (dose: 8.0 mg/kg/injection, schedule: Q01DX Z (ip), vehicle: water): 122 % of control
T/C (dose: 12.0 mg/kg/injection, schedule: Q01DX Z (ip), vehicle: carboxymethylcellulose (CMC)): 225 % of control
T/C (dose: 16.0 mg/kg/injection, schedule: Q01DX Z (ip), vehicle: carboxymethylcellulose (CMC)): 223 % of control
T/C (dose: 16.0 mg/kg/injection, schedule: Q01DX Z (ip), vehicle: water): 210 % of control
T/C (dose: 24.0 mg/kg/injection, schedule: Q01DX Z (ip), vehicle: carboxymethylcellulose (CMC)): 223 % of control
T/C (dose: 31.0 mg/kg/injection, schedule: Q01DX Z (ip), vehicle: carboxymethylcellulose (CMC)): 177 % of control

From PubChem BioAssay AID248 (DTP/NCI, 2004)
